Data published in patent US7816558B2, “Triarylcarboxylic acid derivative” (Astellas Pharma Inc., priority 2005, dated 2010).

biological target: T1, xanthine oxidase (derived from butter milk, by Sigma) (Bos taurus, UniProt P80457); test: Xanthine oxidase inhibiting activity; type: biochemical; settings: pterin 5 μM as substrate, isoxanthopterin light emission, room temperature; read-out: IC50 (concentration of the test compound for 50% inhibition)
T1 construct: xanthine oxidase (derived from butter milk, by Sigma); purchased Sigma; host or cells: butter milk (natural source)
T1 sequence (P80457 whole entry): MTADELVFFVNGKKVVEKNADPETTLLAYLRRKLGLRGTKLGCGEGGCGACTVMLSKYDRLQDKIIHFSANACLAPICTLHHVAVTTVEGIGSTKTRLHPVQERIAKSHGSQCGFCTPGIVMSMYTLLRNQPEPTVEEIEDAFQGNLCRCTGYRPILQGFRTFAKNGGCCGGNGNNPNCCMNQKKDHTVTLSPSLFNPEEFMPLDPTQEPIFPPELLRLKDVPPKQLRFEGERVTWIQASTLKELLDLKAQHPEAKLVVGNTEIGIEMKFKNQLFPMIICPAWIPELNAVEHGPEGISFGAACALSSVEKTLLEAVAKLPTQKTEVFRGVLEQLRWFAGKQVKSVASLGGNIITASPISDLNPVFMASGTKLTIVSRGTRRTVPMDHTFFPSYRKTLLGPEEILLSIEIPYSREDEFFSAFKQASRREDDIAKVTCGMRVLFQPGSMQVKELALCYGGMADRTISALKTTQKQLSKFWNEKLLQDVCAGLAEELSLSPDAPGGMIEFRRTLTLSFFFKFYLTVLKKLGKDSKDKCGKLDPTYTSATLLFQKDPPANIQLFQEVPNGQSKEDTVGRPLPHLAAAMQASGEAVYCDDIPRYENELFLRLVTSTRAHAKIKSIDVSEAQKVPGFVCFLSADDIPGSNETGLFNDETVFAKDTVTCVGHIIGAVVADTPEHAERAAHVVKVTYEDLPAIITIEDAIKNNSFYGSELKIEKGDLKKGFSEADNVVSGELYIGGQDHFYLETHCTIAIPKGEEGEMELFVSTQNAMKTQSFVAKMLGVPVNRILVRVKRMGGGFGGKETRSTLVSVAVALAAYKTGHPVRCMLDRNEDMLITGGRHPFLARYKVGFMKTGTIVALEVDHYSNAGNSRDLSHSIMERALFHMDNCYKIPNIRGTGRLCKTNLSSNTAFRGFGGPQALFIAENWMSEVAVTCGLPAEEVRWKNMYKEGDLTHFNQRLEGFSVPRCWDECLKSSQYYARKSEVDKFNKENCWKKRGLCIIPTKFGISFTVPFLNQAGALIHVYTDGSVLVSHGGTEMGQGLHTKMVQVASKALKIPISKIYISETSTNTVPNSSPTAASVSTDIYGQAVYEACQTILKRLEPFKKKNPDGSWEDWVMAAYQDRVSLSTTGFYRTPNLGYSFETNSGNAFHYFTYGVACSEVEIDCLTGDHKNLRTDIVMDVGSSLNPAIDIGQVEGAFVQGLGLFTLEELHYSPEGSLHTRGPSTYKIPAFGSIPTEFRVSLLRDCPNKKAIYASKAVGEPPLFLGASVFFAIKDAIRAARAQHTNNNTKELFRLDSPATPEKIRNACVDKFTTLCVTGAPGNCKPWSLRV
Method: A test compound was dissolved in DMSO (by Nacalai) to have a concentration of 10 mM, and then just before use, its concentration was adjusted to a desired one.
The xanthine oxidase inhibitory activity of the compound of the present invention was evaluated according to a partly modified method of a method described in a reference “Free Radic. Biol. Med. 6, 607-615, 1992”. Concretely, xanthine oxidase (derived from butter milk, by Sigma) was mixed with 50 mM phosphate buffer to be 0.03 units/ml, and applied to a 96-well plate in an amount of […]. The test compound diluted to have a final concentration was added to the plate in an amount of 2 μl/well, and processed at room temperature for 20 minutes. Pterin (by Sigma) was added to it to have a final concentration of 5 μM in an amount of 50 μl/well, and reacted at room temperature for 10 minutes. Under a condition of excitation at 345 nm and emission at […] (pterin is oxidized by xanthine oxidase to give isoxanthopterin, and under the condition it emits light), the sample was analyzed using a microplate reader sapphire (by Tacan).
The light emission by isoxanthopterin in the presence or absence of xanthine oxidase was defined as 0% inhibition and 100% inhibition, respectively, and the concentration (IC50) of the test compound for 50% inhibition was computed.

| SMILES | IC50 [nM] |
| --- | --- |
| COc1ccc(-c2ccc(-n3cc(C(=O)O)cn3)cc2C#N)cc1 [Example 140, 1-(2-cyano-4′-methoxybiphenyl-4-yl)-1H-pyrazole-4-carboxylic acid] | 1.4 |
| Cc1cccc(-c2ccc(-c3nc(C)c(C(=O)O)s3)cc2C#N)c1 [Example 129, 2-(2-cyano-3′-methylbiphenyl-4-yl)-4-methyl-1,3-thiazole-5-carboxylic acid] | 0.9 |
| CC(C)(C)c1ccc(-c2ccc(-c3ccc(C(=O)O)s3)cc2C#N)cc1 [Example 94] | 0.5 |

tested on: serum uric acid level; test: Hypouricemic effect (rat oxonate-induced high uric acid model), test (A); type: in vivo; settings: Wistar rats, potassium oxonate 250 mg/kg s.c., 2 hours after oral administration, normal group 100% inhibition, control group 0%
Method: (A) For evaluating the serum uric acid level depressing capability of the compounds of the present invention, the following test was carried out using an oxonate-induced high uric acid model.
A 0.5% methyl cellulose liquid (normal group, control group) or a test compound suspended in 0.5% methyl cellulose (compound-administered group) was orally administered to 5 or 6-week-age male Wistar rats. One hour before blood collection, saline (normal group), or 250 mg/kg of potassium oxonate suspended in saline (control group, compound-administered group) was subcutaneously administered to the rats. 2 hours or 18 hours after the compound or methyl cellulose liquid administration, the blood was collected from each rat. The serum was separated from the collected blood, and the serum uric acid level was measured according to a phosphorus tungstate method (Am. J. Clin. Pathol., 28, 152-, 1957).
This test confirmed the excellent hypouricemic effect of the compounds of the present invention. For example, ED50 of the compound of Example 136 was 0.2 mg/kg in 2 hours after oral administration (for this, the serum uric acid level of the normal group was defined as 100% inhibition and the serum uric acid level of the control group was as 0% inhibition).

| SMILES | ED50 [mg/kg] |
| --- | --- |
| COc1ccc(-c2ccc(-n3cc(C(=O)O)cn3)cc2C#N)cc1 [Example 140, 1-(2-cyano-4′-methoxybiphenyl-4-yl)-1H-pyrazole-4-carboxylic acid] | < 1 |
| COc1ccc(-c2ccc(-c3nc(C)c(C(=O)O)s3)cc2C#N)cc1 [Example 127, 2-(2-cyano-4′-methoxybiphenyl-4-yl)-4-methyl-1,3-thiazole-5-carboxylic acid] | < 1 |
| N#Cc1cc(-c2ncc(C(=O)O)s2)ccc1-c1ccccc1 [Example 136, 2-(2-cyanobiphenyl-4-yl)-1,3-thiazole-5-carboxylic acid] | 0.2 |
| Cn1nc(-c2ccc(-c3ccccc3)c(C#N)c2)cc1C(=O)O [Example 146, 3-(2-cyanobiphenyl-4-yl)-1-methyl-1H-pyrazole-5-carboxylic acid] | < 1 |
| Cc1ccc(-c2ccc(-c3nc(C)c(C(=O)O)s3)cc2C#N)cc1 [Example 124, 2-(2-cyano-4′-methylbiphenyl-4-yl)-4-methyl-1,3-thiazole-5-carboxylic acid] | < 1 |
| N#Cc1cc(-c2ccc(C(=O)O)s2)ccc1-c1ccccc1 [Example 68, 5-(2-cyanobiphenyl-4-yl)thiophene-2-carboxylic acid] | < 1 |
| N#Cc1cc(-n2cc(C(=O)O)cn2)ccc1-c1ccccc1 [Example 137, 1-(2-cyanobiphenyl-4-yl)-1H-pyrazole-4-carboxylic acid] | < 1 |
| N#Cc1cc(-c2cc(C(=O)[O-])ccn2)ccc1-c1ccccc1.[Na+] [Example 1, sodium 2-(2-cyanobiphenyl-4-yl)isonicotinate] | < 1 |
| Cc1nc(-c2ccc(-c3ccccc3)c(C#N)c2)sc1C(=O)O [Example 123, 2-(2-cyanobiphenyl-4-yl)-4-methyl-1,3-thiazole-5-carboxylic acid] | < 1 |
